ChEMBL document CHEMBL1154680, “Alkyl and dialkylaminoethyl derivatives of 5-amino-2-azabicyclo[3.2.2]nonanes and their antiplasmodial and antitrypanosomal activities” (Eur J Med Chem, 2010)

Experiments:
[1] = test system: L6; test: Cytotoxicity against rat L6 cells; type: cell-based
[2] = test system: Trypanosoma brucei rhodesiense; test: […] activity against Trypanosoma brucei rhodesiense STIB 900 by microplate assay; type: functional, organism-based
[3] = Selectivity index, ratio of IC50 for rat L6 cells to IC50 for Trypanosoma brucei rhodesiense STIB 900; type: toxicity, cell-based; settings: read-out: Ratio IC50
[4] = test system: Plasmodium falciparum; test: Antiplasmodial activity against chloroquine and pyrimethamine-resistant Plasmodium falciparum K1 by microplate assay; type: functional, organism-based
[5] = Selectivity index, ratio of IC50 for rat L6 cells to IC50 for chloroquine and pyrimethamine-resistant Plasmodium falciparum K1; type: toxicity, cell-based; settings: read-out: Ratio IC50

Work on `CN(C)C12CCN(Cc3ccccc3)C(C(c3ccccc3)C1)C(c1ccccc1)C2` (racemic) yielded an IC50 [1] of 7330 nM, an IC50 [2] of 1410 nM and a selectivity ratio [3] of 5.2. It also gave an IC50 [4] of 600 nM and a selectivity ratio [5] of 12.2.

With `Clc1ccc(C2CC3(N4CCCCC4)CCNC2C(c2ccc(Cl)cc2)C3)cc1` (stereo not given) the selectivity ratio [3] was 125 and the selectivity ratio [5] was 17.6.

Work on `c1ccc(CCN2CCC3(N4CCCC4)CC(c4ccccc4)C2C(c2ccccc2)C3)cc1` (racemic) yielded an IC50 [1] of 3690 nM, an IC50 [2] of 930 nM and a selectivity ratio [3] of 3.97. For the same compound, the IC50 [4] was 960 nM and the selectivity ratio [5] was 3.84.

For `c1ccc(CN2CCC3(N4CCCC4)CC(c4ccccc4)C2C(c2ccccc2)C3)cc1` (racemic), the IC50 [1] was 4650 nM, the IC50 [2] was 900 nM and the selectivity ratio [3] was 5.17. The IC50 [4] was 820 nM and the selectivity ratio [5] was 5.67.

Compound `CN1CCC2(N3CCCC3)CC(c3ccccc3)C1C(c1ccccc1)C2` (racemic) has an IC50 [1] of 92100 nM, an IC50 [2] of 1860 nM and a selectivity ratio [3] of 49.5. The IC50 [4] was 1720 nM and the selectivity ratio [5] was 53.5.

In the case of `CN(C)C12CCN(CCN3CCCC3)C(C(c3ccccc3)C1)C(c1ccccc1)C2` (racemic), the IC50 [1] is reported as 80400 nM, the IC50 [2] is reported as 1320 nM and the selectivity ratio [3] is reported as 60.9. For the same compound, the IC50 [4] was 590 nM and the selectivity ratio [5] was 136.

Work on `CN1CCC2(N3CCCC3)CC(c3ccc(Cl)cc3)C1C(c1ccc(Cl)cc1)C2` (racemic) yielded an IC50 [1] of 7340 nM, an IC50 [2] of 350 nM and a selectivity ratio [3] of 21. For the same compound, the IC50 [4] was 870 nM and the selectivity ratio [5] was 8.44.

With `Clc1ccc(C2CC3(N4CCCC4)CCNC2C(c2ccc(Cl)cc2)C3)cc1` (stereo not given) the selectivity ratio [3] was 152 and the selectivity ratio [5] was 40.2.

In the case of `CN(C)C12CCN(CCc3ccccc3)C(C(c3ccccc3)C1)C(c1ccccc1)C2` (racemic), the IC50 [1] is reported as 4600 nM, the IC50 [2] is reported as 570 nM and the selectivity ratio [3] is reported as 8.07. The IC50 [4] was 120 nM and the selectivity ratio [5] was 38.3.

`c1ccc(CCN2CCC3(N4CCCCC4)CC(c4ccccc4)C2C(c2ccccc2)C3)cc1` (racemic) showed an IC50 [1] of 8400 nM, an IC50 [2] of 1200 nM and a selectivity ratio [3] of 7. For the same compound, the IC50 [4] was 710 nM and the selectivity ratio [5] was 11.8.

With `c1ccc(C2CC3(N4CCCCC4)CCN(CCN4CCCC4)C2C(c2ccccc2)C3)cc1` (racemic) the IC50 [1] was 156000 nM, the IC50 [2] was 25600 nM and the selectivity ratio [3] was 6.09. The IC50 [4] was 92 nM and the selectivity ratio [5] was 1690.

Compound `Clc1ccc(C2CC3(N4CCCCC4)CCN(CCc4ccccc4)C2C(c2ccc(Cl)cc2)C3)cc1` (racemic) has an IC50 [1] of 7890 nM, an IC50 [2] of 1860 nM and a selectivity ratio [3] of 4.24. For the same compound, the IC50 [4] was 730 nM and the selectivity ratio [5] was 10.8.

`CN1CCC2(N(C)C)CC(c3ccccc3)C1C(c1ccccc1)C2` (racemic) gave an IC50 [1] of 109000 nM, an IC50 [2] of 1760 nM and a selectivity ratio [3] of 61.9.

`c1ccc(C2CC3(N4CCCC4)CCN(CCN4CCCC4)C2C(c2ccccc2)C3)cc1` (racemic) showed an IC50 [1] of 58200 nM, an IC50 [2] of 3380 nM and a selectivity ratio [3] of 17.2. The IC50 [4] was 500 nM and the selectivity ratio [5] was 116.

Compound `CN(C)C12CCNC(C(c3ccc(Cl)cc3)C1)C(c1ccc(Cl)cc1)C2` (stereo not given) has a selectivity ratio [3] of 143 and a selectivity ratio [5] of 21.3.

`Clc1ccc(C2CC3(N4CCCC4)CCN(CCc4ccccc4)C2C(c2ccc(Cl)cc2)C3)cc1` (racemic) showed an IC50 [1] of 4220 nM, an IC50 [2] of 1140 nM and a selectivity ratio [3] of 3.7. The IC50 [4] was 520 nM and the selectivity ratio [5] was 8.12.

For `C[C@@H]1CC[C@H]2[C@@H](C)C(=O)O[C@@H]3O[C@@]4(C)CC[C@@H]1[C@]32OO4` [ARTEMISININ], the IC50 [4] was 6.4 nM.

`CN(C)C12CCN(CCc3ccccc3)C(C(c3ccc(Cl)cc3)C1)C(c1ccc(Cl)cc1)C2` (racemic) gave an IC50 [1] of 3400 nM, an IC50 [2] of 930 nM and a selectivity ratio [3] of 3.66. The IC50 [4] was 470 nM and the selectivity ratio [5] was 7.23.
